Reference: US11396531B2, “Antimicrobial peptides comprising epsilon lysine residues” (priority 2016, dated 2022)
≈ marks a conversion by molar mass, not a printed value. No end group written: not given here.

How the values were obtained:
A. baumannii = assay: microbe, parasite or virus in culture; settings: A. baumanii (n = 3)
Protocol: (§1) MIC of cationic polymers and polypeptide were tested in accordance with the Clinical and Laboratory Standards Institute (CLSI) guidelines against a panel of antibiotic-susceptible/-resistant bacteria, yeasts and fungal strains. Bacterial and yeast strains were cultured on tryptic soy agar (TSA) and Sabaroud dextrose agar (SDA) plates (Neogen Corporation, MI, USA) overnight respectively. Inocula in Mueller-Hinton broth (MHB) for bacteria and SD broth for C. albicans (Beckton Dickinson, MD, USA) were prepared at 0.5 McFarland. The suspensions were then diluted to a final concentration of 10^5 CFU/ml in a 96-well microtitre plate (SPL Life Sciences Co., Ltd, Korea). […] The antimicrobial activities were compared with topical antiseptic agents, BAK and CHX. A similar protocol was used to determine the MIC of εPL against antibiotic-resistant pathogens. MIC of the polymers and polypeptides against Fusarium strains was determined in full strength RPMI-1640 buffer. Fungal spores were recovered from a 5-day old culture on a potato dextrose agar and diluted to a concentration of 10^5 spores/ml in 0.9% saline solution. A further 50-fold dilution was done in RPMI-1640 buffer and 100 μl of the inoculum was added to 96 well plates containing an equal volume of test peptides at 2-fold serial dilutions. 200 μl of inoculum without any additives and buffer alone served as positive and negative controls, respectively. The plate was then incubated at 30° C. for 48 h. The absorbance value was measured at 600 nm as before and the lowest concentration of the peptide which inhibited 90% growth was reported. All MIC determinations were performed in duplicates.
(§2) MICs of polymers/antibiotics were determined using the microdilution method in 96 well microtitre plates (SPL Life Sciences Co., Ltd, Korea), following the guidelines of Clinical and Laboratory Standards Institute (CLSI) document M100-S18. Briefly, polymers (1-512 μg/ml) or antibiotics were dissolved in appropriate media (Mueller Hinton broth, MHB for bacteria; Sabaroud's Dextrose (SD) broth for yeasts and RPMI buffer for Fusarium strains) and 100 μl of this was then mixed with an equal volume of microbial inoculum (OD600=˜0.08) in the same media and shaken in a closed incubator.

[1] = tested on: Carbapenam-resistant Enterobacter strains (CRE); assay: microbe, parasite or virus in culture; settings: CRE strains (n = 4)
Protocol: as §1, §2

E. cloacae complex = assay: microbe, parasite or virus in culture; settings: E. clocae complex (n = 4)
Protocol: as §1, §2

K. pneumoniae = assay: microbe, parasite or virus in culture; format: cell-based, Klebsiella pneumoniae; settings: K. pneumonia (n = 4)
Protocol: as §1, with “Korea). Polymers and polypeptides were added to the inoculum in 2-fold serial dilutions to give a range of concentrations from 2-1024 μg/ml.” for “Korea).”
as §2

[2] = tested on: Vancomycin-resistant Enterococcus (VRE); settings: VRE (n = 3)
Protocol: as §1, §2

C. albicans = C. albicans (n = 5)
Protocol: as §1, §2

S. aureus = assay: microbe, parasite or virus in culture; format: cell-based, Staphylococcus aureus; settings: S. aureus (n = 6)
Protocol: as §1, with “Korea). Polymers and polypeptides were added to the inoculum in 2-fold serial dilutions to give a range of concentrations from 2-1024 μg/ml.” for “Korea).”
as §2

[3] = tested on: T-cell lymphomas (HuT78, MJ, HH) and B-cell lymphomas (Ly-4 and Ly-18); assay: Anticancer properties of hypercharged peptides (MTS); format: cell-based, human; settings: 62.5-500 μg/ml
Protocol: The hyper-charged peptides were screened for their anticancer properties using cell lines derived from patients with various forms of cutaneous lymphomas, including T-cell lymphomas (HuT78, MJ, HH) and B-cell lymphomas (Ly-4 and Ly-18). The relative cytotoxicity of these peptides was also assessed in healthy primary peripheral blood lymphocyte (PBL) T-cells. Cytotoxicity was measured as the mitochondrial function by metabolic reduction of MTS.

E. coli = assay: microbe, parasite or virus in culture; format: cell-based, Escherichia coli; settings: E. coli (n = 3)
Protocol: as §1, with “Korea). Polymers and polypeptides were added to the inoculum in 2-fold serial dilutions to give a range of concentrations from 2-1024 μg/ml.” for “Korea).”
as §2

P. aeruginosa = format: cell-based, Pseudomonas aeruginosa; settings: P. aeruginosa (n = 22)
Protocol: as §1, with “Korea). Polymers and polypeptides were added to the inoculum in 2-fold serial dilutions to give a range of concentrations from 2-1024 μg/ml.” for “Korea).”
(§3) MICs of polymers/antibiotics were determined using the microdilution method in 96 well microtitre plates (SPL Life Sciences Co., Ltd, Korea), following the guidelines of Clinical and Laboratory Standards Institute (CLSI) document M100-S18. […]

MRSA = format: cell-based, Staphylococcus aureus; settings: MRSA (n = 9)
Protocol: as §1, with “Korea). Polymers and polypeptides were added to the inoculum in 2-fold serial dilutions to give a range of concentrations from 2-1024 μg/ml.” for “Korea).”
as §2

P. aeruginosa ATCC 9027 = assay: Antimicrobial activity of the peptides in trypsin; format: cell-based, Pseudomonas aeruginosa; settings: trypsin:peptide 1:100, 37° C.
Protocol: To determine the antimicrobial activity of the peptides in the presence of proteases, 1 mg/ml of HC1 and HC2 were incubated with trypsin enzyme:peptide weight ratio 1:100) for 1 h at 37° C. After this, a 20 μl aliquot of this solution was mixed 180 μl of bacterial inoculum (P. aeruginosa ATCC 9027, 10^5 CFU/ml in MHB) and incubated at room temperature for 6 h. 100 μL aliquots of the suspension was diluted serially (10-fold) in 10 mM PBS solution and pour plated on MH agar plates and incubated at 37° C. for 48 h and colony forming units per ml (CFU/ml) are enumerated.

[4] = tested on: F. solani and F. oxysporum; assay: Minimum inhibitory concentration (MIC) determination, Fusarium strains; format: cell-based; settings: F. solani and F. oxysporum (n = 6)
Protocol: MIC of cationic polymers and polypeptide were tested in accordance with the Clinical and Laboratory Standards Institute (CLSI) guidelines against a panel of antibiotic-susceptible/-resistant bacteria, yeasts and fungal strains. Bacterial and yeast strains were cultured on tryptic soy agar (TSA) and Sabaroud dextrose agar (SDA) plates (Neogen Corporation, MI, USA) overnight respectively. Inocula in Mueller-Hinton broth (MHB) for bacteria and SD broth for C. albicans (Beckton Dickinson, MD, USA) were prepared at 0.5 McFarland. The suspensions were then diluted to a final concentration of 10^5 CFU/ml in a 96-well microtitre plate (SPL Life Sciences Co., Ltd, Korea). Polymers and polypeptides were added to the inoculum in 2-fold serial dilutions to give a range of concentrations from 2-1024 μg/ml. […] The antimicrobial activities were compared with topical antiseptic agents, BAK and CHX. […] MIC of the polymers and polypeptides against Fusarium strains was determined in full strength RPMI-1640 buffer. […] The absorbance value was measured at 600 nm as before and the lowest concentration of the peptide which inhibited 90% growth was reported. […]
as §3

## N=C(N)NCCC[C@H](NC(=O)[C@H](N)CCCCNC(=O)[C@H](CCCNC(=N)N)NC(=O)[C@H](N)CCCCNC(=O)[C@H](CCCNC(=N)N)NC(=O)[C@H](N)CCCCNC(=O)[C@H](CCCNC(=N)N)NC(=O)[C@H](N)CCCCNC(=O)[C@H](CCCNC(=N)N)NC(=O)[C@H](N)CCCCNC(=O)[C@H](CCCNC(=N)N)NC(=O)[C@H](N)CCCCN)C(=O)O [HC6, kRkRkRkRkRkR]
A. baumannii
  MIC: 16 to 64 µg/mL
[1]
  MIC: 64 to 128 µg/mL
E. cloacae complex
  MIC: 64 to 128 µg/mL
K. pneumoniae
  MIC: 32 to 128 µg/mL
[2]
  MIC: 16 µg/mL (≈ 9.28 µM)
C. albicans
  MIC: 16 to 32 µg/mL
S. aureus
  MIC: 32 to 64 µg/mL
[3]
  cell killing in lymphoma cell lines: varying degrees of cell killing
E. coli
  MIC: 16 µg/mL (≈ 9.28 µM)
P. aeruginosa
  MIC: 32 to 64 µg/mL
MRSA
  MIC: 16 to 32 µg/mL

## KRKRKRKRKRKR [HC1, KRKRKRKRKRKR]
A. baumannii
  MIC: 64 to 128 µg/mL
[1]
  MIC: 64 to 128 µg/mL
E. cloacae complex
  MIC: 64 to 128 µg/mL
K. pneumoniae
  MIC: 64 µg/mL
[2]
  MIC: 16 to 32 µg/mL
C. albicans
  MIC: 64 to 128 µg/mL
S. aureus
  MIC: 32 to 64 µg/mL
[3]
  cell killing in lymphoma cell lines: varying degrees of cell killing
E. coli
  MIC: 16 µg/mL
P. aeruginosa
  MIC: 32 to 128 µg/mL
MRSA
  MIC: 16 to 64 µg/mL
P. aeruginosa ATCC 9027
  decrease in the bacterial viability after incubation with trypsin for 1 hour: complete loss of activity

## C[C@@H]1C/C=C/C=C/C=C/C=C/[C@H](O[C@@H]2O[C@H](C)[C@@H](O)[C@H](N)[C@@H]2O)C[C@@H]2O[C@](O)(C[C@@H](O)C[C@H]3O[C@@H]3/C=C/C(=O)O1)C[C@H](O)[C@H]2C(=O)O [Natamycin]
[4]
  MIC: 8000 to 16000 µg/mL (≈ 12000 to 24000 µM)
